Experimental data: PubChem BioAssay AID344 (DTP/NCI, 2004)
“And” between values parts separate entries of the source, which are not always exact repeats. Identical values can stand only once. Inconclusive results and toxic doses are left out.

Test system: mice, LPC-1 plasma cell tumor ip, median survival T/C
Assay: NCI In Vivo Anticancer Drug Screen. Data for tumor model Lieberman Plasma Cell No. 1 (LPC-1) (intraperitoneal) in unknown mice
Conditions: endpoint: median survival time, higher = longer survival
Procedure: The antitumor activity of compounds was measured in mice bearing transplantable tumors. Survival or tumor size were measured and the results are expressed as the measurement made in the treated group (T) divided by the measurement made in the vehicle treated control group (C). The tumor model used in this assay is Lieberman Plasma Cell No. 1 (LPC-1) (intraperitoneal) in unknown mice

[1] = dose: 5.0 mg/kg/injection, schedule: Q01DX028 (sc), vehicle: carboxymethylcellulose (CMC)
[2] = dose: 10.0 mg/kg/injection, schedule: Q01DX028 (sc), vehicle: carboxymethylcellulose (CMC)
[3] = dose: 20.0 mg/kg/injection, schedule: Q01DX028 (sc), vehicle: carboxymethylcellulose (CMC)
[4] = dose: 40.0 mg/kg/injection, schedule: Q01DX028 (sc), vehicle: carboxymethylcellulose (CMC)
[5] = dose: 200.0 mg/kg/injection, schedule: Q01DX028 (sc), vehicle: steriod suspending solution
[6] = dose: 400.0 mg/kg/injection, schedule: Q01DX028 (sc), vehicle: steriod suspending solution
[7] = dose: 12.5 mg/kg/injection, schedule: Q01DX028 (sc), vehicle: carboxymethylcellulose (CMC)
[8] = dose: 25.0 mg/kg/injection, schedule: Q01DX028 (sc), vehicle: carboxymethylcellulose (CMC)
[9] = dose: 50.0 mg/kg/injection, schedule: Q01DX028 (sc), vehicle: carboxymethylcellulose (CMC)

NC(CSCc1ccc(N(CCCl)CCCl)cc1)C(=O)O (configuration not stated)
T/C (dose: 3.75 mg/kg/injection, schedule: Q01DX028 (sc), vehicle: saline): 100 % of control
T/C (dose: 7.5 mg/kg/injection, schedule: Q01DX028 (sc), vehicle: saline): 111 % of control
T/C (dose: 15.0 mg/kg/injection, schedule: Q01DX028 (sc), vehicle: saline): 102 % of control
T/C (dose: 30.0 mg/kg/injection, schedule: Q01DX028 (sc), vehicle: saline): 122 % of control

O=c1ccc2cc(O)c(O)cc2o1
T/C (dose: 31.0 mg/kg/injection, schedule: Q01DX028 (sc), vehicle: steriod suspending solution): 119 % of control
T/C (dose: 62.0 mg/kg/injection, schedule: Q01DX028 (sc), vehicle: steriod suspending solution): 115 % of control

COC(=O)c1nc(-c2ccc3c(n2)C(=O)C(N)=C(OC)C3=O)c(N)c(-c2ccc(OC)c(OC)c2O)c1C
T/C (dose: 0.39 mg/kg/injection, schedule: Q01DX028 (sc), vehicle: other): 100 % of control
T/C (dose: 0.65 mg/kg/injection, schedule: Q01DX028 (sc), vehicle: other): 100 % of control
T/C (dose: 1.08 mg/kg/injection, schedule: Q01DX028 (sc), vehicle: other): 100 % of control
T/C (dose: 1.8 mg/kg/injection, schedule: Q01DX028 (sc), vehicle: other): 100 % of control
T/C (dose: 3.0 mg/kg/injection, schedule: Q01DX028 (sc), vehicle: other): 100 % of control
T/C (dose: 5.0 mg/kg/injection, schedule: Q01DX028 (sc), vehicle: other): 102 % of control

N=C(N)SCc1c2ccccc2c(CSC(=N)N)c2ccccc12
T/C (dose: 2.5 mg/kg/injection, schedule: Q01DX028 (sc), vehicle: carboxymethylcellulose (CMC)): 97 % of control
T/C [1]: 112 % of control
T/C [2]: 95 % of control
T/C [3]: 117 % of control
T/C [4]: 115 % of control

Cc1c2c(c(C)c3c1OC(C)(C)CC3)OC(C)(C)CC2
T/C (dose: 50.0 mg/kg/injection, schedule: Q01DX009 (sc), vehicle: saline): 104 % of control
T/C (dose: 100.0 mg/kg/injection, schedule: Q01DX009 (sc), vehicle: saline): 97 % of control
T/C (dose: 200.0 mg/kg/injection, schedule: Q01DX009 (sc), vehicle: saline): 95 % of control
T/C (dose: 400.0 mg/kg/injection, schedule: Q01DX009 (sc), vehicle: saline): 90 % of control

COc1ccc2c(c1)C(C)=CC(C)(C)N2
T/C [5]: 110 % of control
T/C [6]: 154 % of control

O=NN(CCF)C(=O)NC1CCCCC1
T/C (dose: 33.0 mg/kg/injection, schedule: Q01DX028 (sc), vehicle: carboxymethylcellulose (CMC)): 97 % of control

CCOC(N)=O
T/C (dose: 128.0 mg/kg/injection, schedule: Q01DX028 (sc), vehicle: other): 98 % of control
T/C (dose: 400.0 mg/kg/injection, schedule: Q01DX028 (sc), vehicle: saline): 210 % of control
T/C (dose: 512.0 mg/kg/injection, schedule: Q01DX028 (sc), vehicle: other): 175 % of control

Nc1nc(=S)c2ncn(C3OC(CO)C(O)C3O)c2[nH]1 (configuration not stated)
T/C (dose: 3.0 mg/kg/injection, schedule: Q01DX028 (sc), vehicle: water): 121 % of control
T/C (dose: 5.0 mg/kg/injection, schedule: Q01DX028 (sc), vehicle: water): 110 % of control
T/C (dose: 8.4 mg/kg/injection, schedule: Q01DX028 (sc), vehicle: water): 110 % of control
T/C (dose: 14.0 mg/kg/injection, schedule: Q01DX028 (sc), vehicle: water): 100 % of control
T/C (dose: 23.0 mg/kg/injection, schedule: Q01DX028 (sc), vehicle: water): 100 % of control

CNNCc1ccc(C(=O)NC(C)C)cc1
T/C (dose: 26.0 mg/kg/injection, schedule: Q01DX028 (sc), vehicle: saline): 96 % of control
T/C (dose: 65.0 mg/kg/injection, schedule: Q01DX028 (sc), vehicle: saline): 166 % of control
T/C (dose: 90.0 mg/kg/injection, schedule: Q01DX028 (sc), vehicle: saline): 115 % of control
T/C (dose: 108.0 mg/kg/injection, schedule: Q01DX028 (sc), vehicle: saline): 180 % of control
T/C (dose: 135.0 mg/kg/injection, schedule: Q01DX028 (sc), vehicle: saline): 100 % of control
T/C (dose: 300.0 mg/kg/injection, schedule: Q01DX028 (sc), vehicle: saline): 114 % of control
T/C (dose: 500.0 mg/kg/injection, schedule: Q01DX028 (sc), vehicle: saline): 95 % of control

O=c1ccc2ccc(O)cc2o1
T/C (dose: 266.0 mg/kg/injection, schedule: Q01DX028 (sc), vehicle: carboxymethylcellulose (CMC)): 102 % of control
T/C (dose: 400.0 mg/kg/injection, schedule: Q01DX028 (sc), vehicle: carboxymethylcellulose (CMC)): 97 % of control
T/C (dose: 600.0 mg/kg/injection, schedule: Q01DX028 (sc), vehicle: carboxymethylcellulose (CMC)): 97 % of control

CC1(C)CC(C)(c2ccc(O)cc2)c2ccccc2O1 (configuration not stated)
T/C [5]: 114 % of control
T/C [6]: 114 % of control

O=C(O)CCc1c[nH]c2ccc(N(CCCl)CCCl)cc12
T/C (dose: 1.8 mg/kg/injection, schedule: Q01DX028 (sc), vehicle: carboxymethylcellulose (CMC)): 182 % of control
T/C (dose: 2.7 mg/kg/injection, schedule: Q01DX028 (sc), vehicle: carboxymethylcellulose (CMC)): 113 % of control
T/C (dose: 3.0 mg/kg/injection, schedule: Q01DX028 (sc), vehicle: carboxymethylcellulose (CMC)): 164 % of control
T/C [1]: 151 % of control
T/C (dose: 6.0 mg/kg/injection, schedule: Q01DX028 (sc), vehicle: carboxymethylcellulose (CMC)): 163 % of control
T/C (dose: 9.0 mg/kg/injection, schedule: Q01DX028 (sc), vehicle: carboxymethylcellulose (CMC)): 86 % of control

CN(C)c1ccc(/C=C2\C=Cc3ccccc32)cc1
T/C (dose: 6.3 mg/kg/injection, schedule: Q01DX028 (sc), vehicle: carboxymethylcellulose (CMC)): 102 % of control
T/C [7]: 102 % of control
T/C [8]: 102 % of control
T/C [9]: 97 % of control
T/C (dose: 100.0 mg/kg/injection, schedule: Q01DX028 (sc), vehicle: carboxymethylcellulose (CMC)): 94 % of control

C/C(=N\N=C(N)N)c1ccc(NC(=O)Nc2ccc(/C(C)=N/N=C(N)N)cc2)cc1
T/C [2]: 94 % of control
T/C [3]: 102 % of control
T/C [4]: 105 % of control
T/C (dose: 80.0 mg/kg/injection, schedule: Q01DX028 (sc), vehicle: carboxymethylcellulose (CMC)): 100 % of control

CNNCc1ccc(C(=O)NC(N)=O)cc1
T/C (dose: 50.0 mg/kg/injection, schedule: Q01DX028 (sc), vehicle: saline): 100 % of control
T/C (dose: 100.0 mg/kg/injection, schedule: Q01DX028 (sc), vehicle: saline): 105 % of control
T/C (dose: 200.0 mg/kg/injection, schedule: Q01DX028 (sc), vehicle: saline): 102 % of control

CCOC(=O)c1c[nH]c2ccc(N(CCCl)CCCl)cc12
T/C (dose: 23.0 mg/kg/injection, schedule: Q01DX028 (sc), vehicle: carboxymethylcellulose (CMC)): 112 % of control
T/C (dose: 39.0 mg/kg/injection, schedule: Q01DX028 (sc), vehicle: carboxymethylcellulose (CMC)): 110 % of control
T/C (dose: 65.0 mg/kg/injection, schedule: Q01DX028 (sc), vehicle: carboxymethylcellulose (CMC)): 89 % of control
T/C (dose: 108.0 mg/kg/injection, schedule: Q01DX015 (sc), vehicle: carboxymethylcellulose (CMC)): 97 % of control
T/C (dose: 108.0 mg/kg/injection, schedule: Q01DX028 (sc), vehicle: carboxymethylcellulose (CMC)): 87 % of control

CS(=O)(=O)OCCC(=O)NCNC(=O)CCOS(C)(=O)=O
T/C (dose: 6.25 mg/kg/injection, schedule: Q01DX028 (sc), vehicle: carboxymethylcellulose (CMC)): 184 % of control
T/C (dose: 12.5 mg/kg/injection, schedule: Q01DX012 (sc), vehicle: carboxymethylcellulose (CMC)): 105 % of control
T/C [7]: 223 % of control and 276 % of control
T/C (dose: 25.0 mg/kg/injection, schedule: Q01DX012 (sc), vehicle: carboxymethylcellulose (CMC)): 328 % of control
T/C [8]: 200 % of control and 230 % of control
T/C (dose: 50.0 mg/kg/injection, schedule: Q01DX012 (sc), vehicle: carboxymethylcellulose (CMC)): 110 % of control
T/C [9]: 107 % of control and 121 % of control
T/C (dose: 75.0 mg/kg/injection, schedule: Q01DX028 (sc), vehicle: carboxymethylcellulose (CMC)): 87 % of control

OC(CBr)C(O)C(O)C(O)CBr (configuration not stated)
T/C (dose: 125.0 mg/kg/injection, schedule: Q01DX028 (sc), vehicle: carboxymethylcellulose (CMC)): 94 % of control and 102 % of control and 100 % of control
T/C (dose: 500.0 mg/kg/injection, schedule: Q01DX028 (sc), vehicle: carboxymethylcellulose (CMC)): 89 % of control and 115 % of control
